The subject of test [1] is Hara (NRF2 pathway wild type cell line with low AKR1C3 expression). Nature of the test: In vitro cell proliferation assay (CellTiter-Glo), Hara. The class given is cell-based. As to conditions: 72 h; Hara cells, 3 days, CellTiter-Glo, top concentration 10 μM; read-out: HARA Qualified absolute AC50. The gist of the method:
(§1)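 Luminescent CellTiter-Glo readout after 3-day compound exposure at 37 °C; 8-point 1:5 series, top 10 μM final. Seeding: 800 cells/well for H460, 2000 cells/well for Hara, RPMI-1640 plus 10% FBS. AC50 and percentage activity derived after normalizing to DMSO (1%) and MG132 (30 μM) controls.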

The subject of test [2] is H460 (NRF2 pathway mutant cell line with high AKR1C3 expression). The test is described as follows: In vitro cell proliferation assay (CellTiter-Glo), H460. To be noted: Homo sapiens, NCI-H460, 72 h; H460 cells, 3 days, CellTiter-Glo, top concentration 10 μM; read-out: H460 Qualified absolute AC50. The test is classed as cell-based. The gist of the method: as §1

Usually AC50 stands for the concentration giving half of the maximal activity seen. As to `CCN1c2ccc(F)cc2C(=O)CC12CCN(C(=O)NCc1ccc(F)c(NCCO)c1F)CC2` [Example 75, N-(2,4-difluoro-3-((2-hydroxyethyl)amino)benzyl)-1′-ethyl-6′-fluoro-4′-oxo-3′,4′-dihydro-1′H-spiro[piperidine-4,2′-quinoline]-1-carboxamide], the values for the AC50 in test [1] and in test [2] were more than 10000 nM and 306 nM, respectively.

Consider `CN1c2ccc(F)cc2C(=O)CC12CCN(C(=O)NCc1ccc(F)c(NCCOP(=O)(O)O)c1)CC2` [Example 28], for which the AC50 was more than 10000 nM in test [1] and 52 nM in test [2].

Take `O=C(NCCO)c1cc(CNC(=O)N2CCC3(CC2)CC(=O)c2cc(F)ccc2N3)ccc1F` [Example 48, 6′-fluoro-N-(4-fluoro-3-((2-hydroxyethyl)carbamoyl)benzyl)-4′-oxo-3′,4′-dihydro-1′H-spiro[piperidine-4,2′-quinoline]-1-carboxamide]: the AC50 in test [1] amounted to 7960 nM; in test [2] it was 108 nM.

`CCN1c2ccc(F)cc2C(=O)CC12CCN(C(=O)NCc1ccc(F)c(C(N)=O)c1)CC2` [Example 13, N-(3-carbamoyl-4-fluorobenzyl)-1′-ethyl-6′-fluoro-4′-oxo-3′,4′-dihydro-1′H-spiro[piperidine-4,2′-quinoline]-1-carboxamide]: the AC50 amounted to 7950 nM in test [1] and 25 nM in test [2].

On to `NS(=O)(=O)c1cc(CNC(=O)N2CCC3(CC2)CC(=O)c2cc(F)ccc2N3)ccc1F` [Example 30, 6′-fluoro-N-(4-fluoro-3-sulfamoylbenzyl)-4′-oxo-3′,4′-dihydro-1′H-spiro[piperidine-4,2′-quinoline]-1-carboxamide], for which the AC50 in test [1] is more than 10000 nM; in test [2], 61 nM.

With `O=C(NCC(F)(F)F)c1cc(CNC(=O)N2CCC3(CC2)CC(=O)c2cc(F)ccc2N3)ccc1F` [Example 101, 6′-fluoro-N-(4-fluoro-3-((2,2,2-trifluoroethyl)carbamoyl)benzyl)-4′-oxo-3′,4′-dihydro-1′H-spiro[piperidine-4,2′-quinoline]-1-carboxamide], the results for the AC50 in test [1] and in test [2] were more than 10000 nM and 528 nM, respectively.

Take `O=C1CC2(CCN(C(=O)NCc3cccc(-n4cncn4)c3)CC2)Nc2c(F)cc(F)cc21` [Example 144, N-(3-(1H-1,2,4-triazol-1-yl)benzyl)-6′,8′-difluoro-4′-oxo-3′,4′-dihydro-1′H-spiro[piperidine-4,2′-quinoline]-1-carboxamide]: the AC50 was more than 10000 nM in test [1] and 3050 nM in test [2].

Turning to `O=C1CC2(CCN(C(=O)NCc3ccc(OC(F)F)cc3)CC2)Nc2c(F)cc(F)cc21` [Example 150, N-(4-(difluoromethoxy)benzyl)-6′,8′-difluoro-4′-oxo-3′,4′-dihydro-1′H-spiro[piperidine-4,2′-quinoline]-1-carboxamide], the AC50 in test [1] was 2620 nM; in test [2] it was 6270 nM.

For the compound `O=C1CC2(CCN(C(=O)NCc3cccc(CO)c3)CC2)Nc2c(F)cc(F)cc21` [Example 129, 6′,8′-difluoro-N-(3-(hydroxymethyl)benzyl)-4′-oxo-3′,4′-dihydro-1′H-spiro[piperidine-4,2′-quinoline]-1-carboxamide], the AC50 is more than 10000 nM in test [1] and 1520 nM in test [2].

As for `Nc1c(F)cc(CNC(=O)N2CCC3(CC2)CC(=O)c2cc(F)ccc2N3)cc1F` [Example 65, N-(4-amino-3,5-difluorobenzyl)-6′-fluoro-4′-oxo-3′,4′-dihydro-1′H-spiro[piperidine-4,2′-quinoline]-1-carboxamide], the AC50 in test [1] was more than 10000 nM; in test [2], 222 nM.

On to `CC(O)c1cc(CNC(=O)N2CCC3(CC2)CC(=O)c2cc(F)ccc2N3)ccc1F` (centres unmarked) [Example 135, 6′-fluoro-N-(4-fluoro-3-(1-hydroxyethyl)benzyl)-4′-oxo-3′,4′-dihydro-1′H-spiro[piperidine-4,2′-quinoline]-1-carboxamide], for which the figures for the AC50 in test [1] and in test [2] were more than 10000 nM and 1860 nM, respectively.

`Cc1noc(CNC(=O)N2CCC3(CC2)CC(=O)c2cc(F)ccc2N3)n1` [Example 134, 6′-fluoro-N-((3-methyl-1,2,4-oxadiazol-5-yl)methyl)-4′-oxo-3′,4′-dihydro-1′H-spiro[piperidine-4,2′-quinoline]-1-carboxamide]: the values for the AC50 in test [1] and in test [2] were 94 nM and 1780 nM, respectively.

Turning to `O=C1CC2(CCN(C(=O)NCc3ccc(F)c(-c4cnco4)c3)CC2)Nc2ccc(F)cc21` [Example 15, 6′-fluoro-N-(4-fluoro-3-(oxazol-5-yl)benzyl)-4′-oxo-3′,4′-dihydro-1′H-spiro[piperidine-4,2′-quinoline]-1-carboxamide], the concentration at half-maximal activity (AC50) stood at 9440 nM in test [1] and 29 nM in test [2].

Turning to `CCNc1cc(F)ccc1CNC(=O)N1CCC2(CC1)CC(=O)c1cc(F)ccc1N2C` [Example 52, N-(2-(ethylamino)-4-fluorobenzyl)-6′-fluoro-1′-methyl-4′-oxo-3′,4′-dihydro-1′H-spiro[piperidine-4,2′-quinoline]-1-carboxamide], the figures for the AC50 in test [1] and in test [2] were more than 10000 nM and 139 nM, respectively.

For `CCN1c2ccc(F)cc2C(=O)CC12CCN(C(=O)NCc1ccc(F)c(N)c1F)CC2` [Example 26, N-(3-amino-2,4-difluorobenzyl)-1′-ethyl-6′-fluoro-4′-oxo-3′,4′-dihydro-1′H-spiro[piperidine-4,2′-quinoline]-1-carboxamide], the AC50 is more than 10000 nM in test [1] and 47 nM in test [2].

With `O=C(NC1COC1)c1cc(CNC(=O)N2CCC3(CC2)CC(=O)c2cc(F)ccc2N3)ccc1F` [Example 105, 6′-fluoro-N-(4-fluoro-3-(oxetan-3-ylcarbamoyl)benzyl)-4′-oxo-3′,4′-dihydro-1′H-spiro[piperidine-4,2′-quinoline]-1-carboxamide], the values for the AC50 in test [1] and in test [2] were more than 10000 nM and 580 nM, respectively.

Turning to `CN1c2ccc(F)cc2C(=O)CC12CCN(C(=O)NCc1ccc(F)c(NCCO)c1F)CC2` [Example 91, N-(2,4-difluoro-3-((2-hydroxyethyl)amino)benzyl)-6′-fluoro-1′-methyl-4′-oxo-3′,4′-dihydro-1′H-spiro[piperidine-4,2′-quinoline]-1-carboxamide], the AC50 was more than 10000 nM in test [1] and 451 nM in test [2].

As to `O=C1CC2(CCN(C(=O)NCc3cocn3)CC2)Nc2ccc(F)cc21` [Example 138, 6′-fluoro-N-(oxazol-4-ylmethyl)-4′-oxo-3′,4′-dihydro-1′H-spiro[piperidine4,2′-quinoline]-1-carboxamide], the AC50 in test [1] was more than 10000 nM; in test [2], 2110 nM.

For the compound `CN1c2ccc(F)cc2C(=O)CC12CCN(C(=O)NCc1ccc(F)c(C(N)=O)c1)CC2` [Example 41, N-(3-carbamoyl-4-fluorobenzyl)-6′-fluoro-1′-methyl-4′-oxo-3′,4′-dihydro-1′H-spiro[piperidine-4,2′-quinoline]-1-carboxamide], the AC50 was more than 10000 nM in test [1] and 93 nM in test [2].

As to `CNC(=O)c1cc(CNC(=O)N2CCC3(CC2)CC(=O)c2cc(F)ccc2N3)ccc1F` [Example 64, 6′-fluoro-N-(4-fluoro-3-(methylcarbamoyl)benzyl)-4′-oxo-3′,4′-dihydro-1′H-spiro[piperidine-4,2′-quinoline]-1-carboxamide], the AC50 in test [1] is more than 10000 nM; in test [2], 222 nM.

Consider `Cc1occc1CNC(=O)N1CCC2(CC1)CC(=O)c1cc(F)cc(F)c1N2` [Example 10, 6′,8′-difluoro-N-((2-methylfuran-3-yl)methyl)-4′-oxo-3′,4′-dihydro-1′H-spiro[piperidine-4,2′-quinoline]-1-carboxamide], for which the AC50 amounted to 5410 nM in test [1] and 21 nM in test [2].

For `Nc1c(F)ccc(CNC(=O)N2CCC3(CC2)CC(=O)c2cc(F)ccc2N3)c1F` [Example 84, N-(3-amino-2,4-difluorobenzyl)-6′-fluoro-4′-oxo-3′,4′-dihydro-1′H-spiro[piperidine-4,2′-quinoline]-1-carboxamide], the AC50 was more than 10000 nM in test [1] and 367 nM in test [2].

Regarding `CCN1c2ccc(F)cc2C(=O)CC12CCN(C(=O)NCc1ccc(F)c(N)c1)CC2` [Example 29, N-(3-amino-4-fluorobenzyl)-1′-ethyl-6′-fluoro-4′-oxo-3′,4′-dihydro-1′H-spiro[piperidine-4,2′-quinoline]-1-carboxamide], the AC50 in test [1] was more than 10000 nM; in test [2], 54 nM.

`COc1cc(CNC(=O)N2CCC3(CC2)CC(=O)c2cc(F)cc(F)c2N3)ccn1` [Example 115, 6′,8′-difluoro-N-((2-methoxypyridin-4-yl)methyl)-4′-oxo-3′,4′-dihydro-1′H-spiro[piperidine-4,2′-quinoline]-1-carboxamide]: the values for the AC50 in test [1] and in test [2] were more than 10000 nM and 930 nM, respectively.

In the case of `COc1cc(CNC(=O)N2CCC3(CC2)CC(=O)c2cc(F)ccc2N3C)ccc1F` [Example 8, 6′-fluoro-N-(4-fluoro-3-methoxybenzyl)-1′-methyl-4′-oxo-3′,4′-dihydro-1′H-spiro[piperidine-4,2′-quinoline]-1-carboxamide], the figures for the AC50 in test [1] and in test [2] were more than 10000 nM and 15 nM, respectively.

For the origin of these results see US11970497B2, “Tricyclic AKR1C3 dependent KARS inhibitors” (Novartis AG, priority 2019, dated 2024).
